{"source": "paper PMC4373826", "about": "“Antiviral Effect of Methylated Flavonol Isorhamnetin against Influenza” (PLoS ONE, 2015)", "key": {"[1]": {"tested_on": "virus-induced autophagic puncta / acidic vesicular organelles in MDCK cells", "assay": "Virus-induced autophagy assay (AVO staining with AO and MDC)", "format": "cell-based, canine", "settings": "50 μM", "method": "To examine the ability of isorhamnetin to block the formation of acidic vesicular organelles (AVOs) after influenza A virus infection, we used various vital staining methods for AVOs, as described previously. Briefly, MDCK cells were cultured on 24-well plates until 80% confluence. Cells were infected with influenza A/PR/08/34 (H1N1) virus as described previously and treated with 50 μM of isorhamnetin using the 3 aforementioned methods of flavonoid treatment (pre-treatment, co-treatment, and post-treatment methods). Cells were stained with 5 μg/mL acridine orange (AO) (Sigma-Aldrich) and 50 μM of monodansylcadaverine (MDC) (Sigma-Aldrich)for 15 min at 37°C and washed 3 times with PBS, after which the cells were examined under a fluorescence microscope (Carl Zeiss, Jena, Germany) to allow detection of autophagic puncta."}, "[2]": {"tested_on": "influenza A/PR/8/34 (H1N1)"}, "Atg-5, Atg-7, and LC3B": {"tested_on": "Atg-5, Atg-7, and LC3B", "assay": "RT-PCR of autophagy-related genes", "format": "cell-based, canine", "settings": "50 μM", "method": "MDCK cells were seeded in 6-well plates and incubated overnight for 80% confluence. After the medium was removed, the cells were washed twice with PBS and infected with the virus as described in the antiviral assay section. Total RNA was isolated using Trizol (Invitrogen, Waltham, MA, USA) according to the manufacturer’s instructions. Synthesis of cDNA was performed using 5 μg of total RNA with MMLV reverse transcriptase (Promega, Madison, WI, USA). The primer sequences used in our study were as follows: HA (forward, 5′-[…]-3′;reverse,5′-[…]-TGACACT-3′); NA (forward, 5′-[…]-3′; reverse,5′-[…]-3); ATG-5 (forward, 5′-[…]-AACAG-3′; reverse, 5′-[…]-3′); ATG-7 (forward, 5′-[…]-3′; reverse, 5′-[…]-A-3′); LC3B (forward, 5′-[…]-3′; reverse, 5′-CTGG-[…]-3′); and GAPDH (forward, 5′-[…]-GGAGC-3′; reverse, 5′-[…]-3′).The expression of mRNA was normalized to that of the control housekeeping gene, GAPDH."}, "[3]": {"tested_on": "virus-induced ROS generation in MDCK cells", "assay": "Virus-induced ROS generation assay (H2DCFDA)", "format": "cell-based, canine", "settings": "50 μM", "method": "For the ROS generation assay, MDCK cells were seeded onto 24-well plates and incubated overnight for 80% confluence. The MDCK cells were infected with the virus as described previously and then treated with the flavonoids (post-treatment method). Intracellular ROS levels were detected using a cell-permeable oxidant-sensitive fluorescent probe, 2′, 7′-dichiorofluorescin diacetate (H2DCFDA, Molecular Probes, Eugene, OR, USA). The cells were incubated with 10 μM of H2DCFDA for 30 min at 37°C in the dark. After incubation, the cells were washed twice and covered with PBS. The average ROS generation was determined by fluorescent images that were captured using Nikon Eclipse TE2000-U fluorescence inverted microscope (Nikon, Tokyo, Japan). In this experiment, we used N-acetyl-L-cysteine (NAC; Sigma-Aldrich), a ROS scavenger reagent, and at a concentration of 15 mM as a positive control treatment."}, "[4]": {"tested_on": "influenza viral genes HA and NA", "assay": "RT-PCR of viral HA and NA genes", "format": "cell-based, influenza A virus"}, "[5]": {"tested_on": "influenza A/PR/8/34 (H1N1) virus particles, chicken RBCs", "settings": "lowest concentration"}, "[6]": {"tested_on": "influenza A/PR/8/34 (H1N1)", "assay": "In ovo virus titer in embryonated chicken egg", "format": "in vivo", "method": "Virus was serially diluted (10-fold serial dilution) and inoculated into the eggs, and then the virus titers were calculated as log10EID50/ml. At the cellular level, virus titration was determined via the hemagglutination assay (as described in detail in the WHO surveillance guidelines) and by the cytopathic effect (CPE) of MDCK cells induced by viral infection, and expressed as 50% tissue culture infectious doses (TCID50), which were calculated based on the method of Reed and Muench.In mice, 50% mouse lethal dose (MLD50) was defined as 50% egg infective dose (EID50) that led to 50% mice mortality that calculated according to Reed and Muench. The flavonoids quercetin, kaempferol, isorhamnetin, diosmetin, and eriodictyol were purchased from the Indofine Chemical Company, Hillsborough, NJ, USA. The flavonoids and PD-98059 (MEK inhibitor, Calbiochem, La Jolla, CA, USA) were dissolved in dimethylsulfoxide (DMSO, Sigma-Aldrich).The final concentration of DMSO in the culture media is 0.2% (v/v). Tamiflu (Oseltamivir, 75 mg) was purchased from Roche-Korea (Seoul, South Korea) Co. Ltd."}, "[7]": {"assay": "Cytotoxicity assay (EZ-Cytox) in MDCK cells", "format": "cell-based, canine", "settings": "dog; MDCK cells, 48 hr", "method": "To determine the 50% cytotoxic concentration (CC50) for each of the tested flavonoid compounds, MDCK cells were seeded onto 96-well plates (NUNC, Penfield, NY, USA) at a density of 1 × 10^4 cells per well and incubated overnight for 80% confluence. MDCK cells were washed twice with PBS and the culture medium was replaced with medium containing serially diluted flavonoids (concentrations from 10μM up to 300 μM) for 48 hr at 37°C in a 5% CO2atmosphere. After the incubation period, the flavonoid-containing media was replaced with new media containing 10% EZ-Cytox (Daeil Lab Service, Seoul, South Korea), and the cells were incubated in the dark for 3 hr at 37°C in a 5% CO2 atmosphere. The optical density was measured at 480 nm using an x-Mark spectrophotometer (Bio-Rad, Hercules, CA, USA). Cytotoxicity was estimated by comparing the cell survival rate of the flavonoids-treated cells and the DMSO-treated cells with the control (virus-untreated) cells. The control cell values were arbitrarily set as the 100% survival rate. The treated cells values were normalized to the control cell values. The calculation of CC50 was carried out as described in detail in S1 Text.\nThe 50% cytotoxic concentration (CC50) was calculated according to the following equation:\nCytotoxicity (%) = [100-(ODt/ODs)] x100\nODt: The optical density (OD) of cells treated with the tested flavonoids.\nODs: The OD of cells treated with the control solvent (0.2 % DMSO).\nAfter obtaining the results, we calculated the concentration that induces 50% cell death using the following equation:\n(X2 - X1) X (50-Y1) / (Y2 - Y1) + X1. Where, X1 represents the lower concentration used in this experiment, while X2 represents the higher concentration. Y1 represents the mean of the percentage of the viable cells at X1 concentration. On the other hand, Y2 represents the mean of the percentage of the viable cells at X2 concentration.”"}}, "note": "Marks after values point to notes of the source that are not given here."}
{"smiles": "COc1cc(-c2oc3cc(O)cc(O)c3c(=O)c2O)ccc1O", "note": "[Isorhamnetin, isorhamnetin]", "values": [{"measurement": "virus-induced autophagic puncta formation and AVO acidification", "setting": "[1]; post-treatment", "value": "almost completely blocked"}, {"measurement": "virus-induced autophagic puncta formation and acidification of AVOs", "setting": "[1]; pre-, co-, and post-treatment", "value": "significantly suppressed"}, {"measurement": "cell viability after viral infection", "setting": "[2]", "value": "increased cell viability in comparison with quercetin treatment"}, {"measurement": "viral infection", "setting": "[2]; 50 μM, co-treatment for 2 hr", "value": "significantly inhibited"}, {"measurement": "influenza virus-induced cell death", "setting": "[2]; post-treatment", "value": "apparent suppression"}, {"measurement": "virus-induced overexpression of autophagy-related genes Atg-5, Atg-7, and LC3B", "setting": "Atg-5, Atg-7, and LC3B", "value": "inhibited"}, {"measurement": "virus-induced ROS generation", "setting": "[3]", "value": "significant reduction"}, {"measurement": "expression of HA and NA", "setting": "[4]", "value": "markedly decreased"}, {"measurement": "hemolysis of chicken RBCs by the virus particle (HI assay)", "setting": "[5]", "value": "significantly inhibited"}, {"measurement": "Virus titer (Embryonated chicken egg)", "setting": "[6]", "value": "10^8 ^* EID50/ml"}, {"measurement": "CC50 at 48 h", "setting": "[7]", "value": "> 280", "unit": "µM"}]}
